The text below walks through data of PMC9146984, “A Novel Proline-Rich Cathelicidin from the Alpaca Vicugna pacos with Potency to Combat Antibiotic-Resistant Bacteria: Mechanism of Action and the Functional Role of the C-Terminal Region” (Membranes, 2022).

One test relates to E. coli MDR 1057. To be noted: MH broth with 0.9% NaCl, 14 passages with the same agent (VicBac[1–22]: after 10 passages). As to the method:
Resistance induction experiments were performed using the previously described method. Briefly, on day one, the overnight culture of wild-type bacteria was diluted with the 2× MH broth supplemented with 1.8% NaCl to reach a final cell concentration of 10^6 CFU/mL. 50 µL of the obtained bacterial suspension were added to aliquots of 50 µL of the peptide solutions serially diluted with the sterilized 0.1% BSA in 96-well flat-bottom polystyrene microplates. After incubation for 20 ± 2 h at 37 °C and 950 rpm, MICs were determined as described above. For each subsequent daily transfer, 2–4 μL of the inoculum taken from the first well containing a sub-inhibitory drug concentration were diluted with 2 mL of the fresh 2× MH broth supplemented with 1.8% NaCl. […] Bacteria that grew at the highest concentration of AMPs on the final day were passaged a further 3 times on drug-free agar plates before determining the final MIC value.

The subject of test [1] is VicBac[1–22]-resistant E. coli MDR 1057 strain. To be noted: Mueller-Hinton broth supplemented with 0.9% NaCl; strain selected 14 days with VicBac[1-22]; cross-resistance. As to the method: (§1) Bacterial test cultures were grown in the Mueller-Hinton broth (MH; Sigma, St. Louis, MO, USA) at 37 °C to mid-log phase and then diluted with the 2× MH medium supplemented with 1.8% NaCl or without salt so that to reach a final cell concentration of 10^6 CFU/mL. 50 µL of the obtained bacterial suspension were added to aliquots of 50 µL of the peptide solutions serially diluted with sterilized 0.1% bovine serum albumin (BSA) in 96-well flat-bottom polystyrene microplates (Eppendorf #0030730011, Hamburg, Germany). […] To verify MIC values, the respiratory activity of the bacteria was determined. Briefly, 20 µL of 0.1 mg/mL resazurin (a redox indicator; Sigma, St. Louis, MO, USA) was added to the wells after 24 h of incubation, and the plate was incubated for an additional two hours. The reduction of resazurin to resorufin was measured. […] The results were expressed as the median values determined based on at least three independent experiments performed in triplicate.
(§2) Resistance induction experiments were performed using the previously described method. Briefly, on day one, the overnight culture of wild-type bacteria was diluted with the 2× MH broth supplemented with 1.8% NaCl to reach a final cell concentration of 10^6 CFU/mL. 50 µL of the obtained bacterial suspension were added to aliquots of 50 µL of the peptide solutions serially diluted with the sterilized 0.1% BSA in 96-well flat-bottom polystyrene microplates. After incubation for 20 ± 2 h at 37 °C and 950 rpm, MICs were determined as described above. For each subsequent daily transfer, 2–4 μL of the inoculum taken from the first well containing a sub-inhibitory drug concentration were diluted with 2 mL of the fresh 2× MH broth supplemented with 1.8% NaCl. […] 14 repeated passages in the presence of antimicrobial agents were made for each bacterial strain during the experiment. Bacteria that grew at the highest concentration of AMPs on the final day were passaged a further 3 times on drug-free agar plates before determining the final MIC value.

The next test has as its system E. coli MDR CI 1057. Particulars: Mueller-Hinton broth supplemented with 0.9% NaCl; for Minimum inhibitory concentration E.coli MDR 1057 14 days w/o AMP: after 14 passages without antimicrobial agents; for Minimum inhibitory concentration E.coli MDR 1057 0 days: before passages. As to the method: as §1, §2
A further test deals with E. coli BW25113 ΔsbmA. It counts as cell-based, Escherichia coli. Particulars: Mueller–Hinton broth, 24 h, 37 °C, median. As to the method:
(§3) The reduction of resazurin to resorufin was measured.

A further test deals with E. coli BW25113 ΔmdtM. The test is classed as cell-based, Escherichia coli. To be noted: Mueller–Hinton broth, 24 h, 37 °C, median. As to the method:
as §3

Another test concerns E. coli BW25113 ΔompF. The test is classed as cell-based, Escherichia coli. To be noted: Mueller–Hinton broth, 24 h, 37 °C, median. As to the method:
as §3

Values after ≈ are worked out from the molar mass of the structure shown. Where two headings read alike, the source gives them in different places. Where a SMILES comes first, the peptide text is derived from it. Bridges are numbered along the chain shown (N, C = ends). [ ]: non-standard residue; d: D form. The star is where a group is joined. X1 = CC[C@H](C)CCCCC(=O)*; Dab = NCC[C@H](N)C(=O)O A value given as a limit tells only on which side of the number the result lay.

For the molecule `CC[C@H](C)CCCCC(=O)N[C@@H](CCN)C(=O)N[C@H](C(=O)N[C@@H](CCN)C(=O)N[C@H]1CCNC(=O)[C@H]([C@@H](C)O)NC(=O)[C@H](CCN)NC(=O)[C@H](CCN)NC(=O)[C@H](CC(C)C)NC(=O)[C@@H](Cc2ccccc2)NC(=O)[C@H](CCN)NC1=O)[C@@H](C)O` [Polymyxin B, polymyxin B] (X1-[Dab]T[Dab][Dab][Dab][dF]L[Dab][Dab]T; lactam 4-C (inferred); N-terminus assumed), in the test on E. coli MDR 1057, the “increase in MIC value after serial passage selection” value was determined as 128 fold. Besides, the “Minimum inhibitory concentration E.coli MDR 1057 14 days with VicBac [1-22]” value in test [1] was found to be 1 µM. In addition, in the test on E. coli MDR CI 1057, the “Minimum inhibitory concentration E.coli MDR 1057 14 days w/o AMP” value was 0.125 µM (≈ 0.15 µg/mL) and the “Minimum inhibitory concentration E.coli MDR 1057 0 days” value came to 0.125 µM (≈ 0.15 µg/mL).

For `CC[C@H](C)[C@H](NC(=O)[C@H](CCCNC(=N)N)NC(=O)[C@@H](N)CCCNC(=N)N)C(=O)N[C@@H](CCCNC(=N)N)C(=O)N1CCC[C@H]1C(=O)N[C@@H](CCCNC(=N)N)C(=O)N1CCC[C@H]1C(=O)N1CCC[C@H]1C(=O)N[C@@H](CCCNC(=N)N)C(=O)N[C@@H](CC(C)C)C(=O)N1CCC[C@H]1C(=O)N[C@@H](CCCNC(=N)N)C(=O)N1CCC[C@H]1C(=O)N[C@@H](CCCNC(=N)N)C(=O)N1CCC[C@H]1C(=O)N[C@@H](CCCNC(=N)N)C(=O)N1CCC[C@H]1C(=O)N[C@@H](CC(C)C)C(=O)N1CCC[C@H]1C(=O)N[C@@H](Cc1ccccc1)C(=O)N1CCC[C@H]1C(=O)N[C@@H](CCCNC(=N)N)C(=O)O` [Bac7[1-22], reference compound] (H-RRIRPRPPRLPRPRPRPLPFPR-OH), the entries for the “Minimum inhibitory concentration, E. coli strain ΔsbmA” value with E. coli BW25113 ΔsbmA (0.9% NaCl: +) and in the test on E. coli BW25113 ΔsbmA (0.9% NaCl: −) were 32 µM (≈ 89.1 µg/mL) and 1 µM (≈ 2.78 µg/mL), respectively. Moreover, the “Minimum inhibitory concentration, E. coli strain ΔmdtM” value is 1 µM (≈ 2.78 µg/mL) in the test with E. coli BW25113 ΔmdtM (0.9% NaCl: +) and 4 µM (≈ 11.1 µg/mL) in the test on E. coli BW25113 ΔmdtM (0.9% NaCl: −). For the same molecule, the “Minimum inhibitory concentration, E. coli strain ΔompF” value was 32 µM (≈ 89.1 µg/mL) in the test with E. coli BW25113 ΔompF (0.9% NaCl: +) and 2 µM (≈ 5.57 µg/mL) in the test with E. coli BW25113 ΔompF (0.9% NaCl: −). Also, the “Minimum inhibitory concentration E.coli MDR 1057 14 days with VicBac [1-22]” value in test [1] was greater than 128 µM. In the test with E. coli MDR CI 1057, the “Minimum inhibitory concentration E.coli MDR 1057 14 days w/o AMP” value is 1 µM (≈ 2.78 µg/mL). Besides, the “Minimum inhibitory concentration E.coli MDR 1057 0 days” value with E. coli MDR CI 1057 turned out to be 1 µM (≈ 2.78 µg/mL).

`CC[C@H](C)[C@H](NC(=O)[C@H](CCCNC(=N)N)NC(=O)[C@@H](N)CCCNC(=N)N)C(=O)N[C@@H](CCCNC(=N)N)C(=O)N[C@@H](CCCNC(=N)N)C(=O)N1CCC[C@H]1C(=O)N[C@@H](CCCNC(=N)N)C(=O)N[C@@H](CC(C)C)C(=O)N1CCC[C@H]1C(=O)N[C@@H](CCCNC(=N)N)C(=O)N1CCC[C@H]1C(=O)N[C@@H](CCCNC(=N)N)C(=O)N[C@H](C(=O)N1CCC[C@H]1C(=O)N[C@@H](CCCNC(=N)N)C(=O)N1CCC[C@H]1C(=O)N[C@@H](CCCNC(=N)N)C(=O)N[C@H](C(=O)N1CCC[C@H]1C(=O)N1CCC[C@H]1C(=O)O)[C@@H](C)CC)C(C)C` [VicBac[1-20]] (H-RRIRRPRLPRPRVPRPRIPP-OH; N-terminus and C-terminus assumed): the “Minimum inhibitory concentration, E. coli strain ΔsbmA” value is greater than 64 µM with E. coli BW25113 ΔsbmA (0.9% NaCl: +) and 8 µM (≈ 20.3 µg/mL) in the test with E. coli BW25113 ΔsbmA (0.9% NaCl: −). For the same molecule, the “Minimum inhibitory concentration, E. coli strain ΔmdtM” value in the test on E. coli BW25113 ΔmdtM (0.9% NaCl: +) amounted to 4 µM (≈ 10.2 µg/mL); with E. coli BW25113 ΔmdtM (0.9% NaCl: −), 8 µM (≈ 20.3 µg/mL). The “Minimum inhibitory concentration, E. coli strain ΔompF” value with E. coli BW25113 ΔompF (0.9% NaCl: +) is 64 µM (≈ 163 µg/mL); in the test on E. coli BW25113 ΔompF (0.9% NaCl: −), 16 µM (≈ 40.7 µg/mL).
